Test results taken from patent US20240228493A1, “LRRK2 INHIBITORS AND USES THEREOF” (NEURON23, ICN., priority 2022, published 2024).

How the values were obtained:
Caco-2 cells = assay: Caco-2 bidirectional permeability; type: in vitro ADME; details: for Caco-2 ER: Efflux Ratio=Papp(BA)/Papp(AB); for Caco-2 A2B (10^−6 cm/s): apical to basolateral; for Caco-2 A2B (10^−6 cm/s) / Caco-2 B2A (10^−6 cm/s): 2 hours, pH 7.4; for Caco-2 B2A (10^−6 cm/s): basolateral to apical
Procedure: The compounds disclosed herein were tested in vitro on CaCo2 cell penetration according to the following procedures.
Caco-2 cells purchased from ATCC were seeded onto […] (PET) in 96-well Corning Insert plates at 1×10^5 cells/cm^2. The media were refreshed every 4 to 5 days until the 21st to 28th day for confluent cell monolayer formation.
Experiments were run in duplicate using a HBSS transport buffer containing 10 mM HEPES at pH 7.4. The test article TEST COMPOUND was tested bi-directionally at […] concentrations, the control compound digoxin was tested bi-directionally at 10 μM, and nadolol and metoprolol were tested at 2.0 μM in the A to B direction. Final DMSO concentrations were adjusted to less than 1%. The plates were incubated for 2 hours in a CO2 incubator at 37±1° C. with 5% CO2 at saturated humidity without shaking. Following incubation, samples were mixed with acetonitrile containing internal standard and centrifuged at 3200×g for 10 minutes. Then 200 μL of supernatant was taken from all samples. For TEST COMPOUND and digoxin, the supernatant was diluted with 200 μL of ultra-pure water and for nadolol and metoprolol, the supernatant was diluted with 600 μL of ultra-pure water. All samples were analyzed by LC-MS/MS. Concentrations of TEST COMPOUND and control compounds were determined in starting solutions, donor well solutions, and receiver well solutions using peak area ratios (PAR) of analyte to internal standard. After the transport assay, a lucifer yellow rejection assay was run to determine the Caco-2 cell monolayer integrity.
The apparent permeability (Papp), the % recovery and the efflux ratio were calculated as follows:
Papp=(dCr/dt)×Vr/(A×C0) 1.
Efflux Ratio=Papp(BA)/Papp(AB) 3. • Where: • dCr/dt is the slope of the cumulative concentration in the receiver compartment versus time (mM/s). • Vr and Vd is the volume in the receiver and donor compartments (0.075 mL on the apical side, 0.25 mL on the basolateral side), respectively. • A is the surface area of the cell monolayer (0.0804 cm^2). • C0 is the measured donor concentrations (μM) at the beginning of the experiment. • Cd and Cr are the final measured concentrations in the donor and receiver compartments, respectively.

[1] = target: T1, wt human LRRK2, catalytic site (Homo sapiens, UniProt Q5S007); assay: TR-FRET LanthaScreen Tb Kinase Activity Assay, LRRK2 inhibition; type: biochemical; details: 2 nM wt human LRRK2, 400 nM peptide, 38 μM ATP
T1 construct: wt human LRRK2, catalytic site, catalytic site (ThermoFisher/USA); purchased ThermoFisher
T1 sequence (Q5S007 1879-2138 limits assumed): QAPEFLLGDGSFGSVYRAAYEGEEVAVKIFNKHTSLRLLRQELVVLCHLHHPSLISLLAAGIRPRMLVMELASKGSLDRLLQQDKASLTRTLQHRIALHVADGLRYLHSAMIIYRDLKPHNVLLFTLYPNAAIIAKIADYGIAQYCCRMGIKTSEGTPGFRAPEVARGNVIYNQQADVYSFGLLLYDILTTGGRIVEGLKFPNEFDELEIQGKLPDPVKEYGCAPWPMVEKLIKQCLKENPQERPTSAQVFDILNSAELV
Procedure: The compounds disclosed herein were tested for their inhibitory effect on LRRK2 kinase according to the following procedures.
The protocol for basic TR-FRET LanthaScreen Tb Kinase Activity Assay inhibitor studies were as follows. LanthaScreen Kinase Activity Assays (ThermoFisher/USA) to evaluate inhibitors were performed by addition of 100 nL of test compound in corresponding DMSO dilutions/5 μL of kinase/fluorescein-ERM (LRRKtide) peptide mixture, Compound & kinase were pre-incubated for 15 minutes, then 5 μl of ATP into 384 well small volume plates. After incubation for 120 minutes at room temperature, the detection reagents containing Tb-anti-pLRRKtide antibody were added to monitor phosphorylation level of peptide. Then, after 60 min minutes incubation at room temperature plates were read in Envision. Data analysis of emission ratios was according to LanthaScreen Tb Kinase Activity Assay protocol.
Kinase and assay components were adjusted to final concentrations according to the kit protocol. For LRRK2: 2 nM wt human LRRK2, catalytic site, catalytic site (ThermoFisher/USA), 400 nM peptide, 38 μM ATP in 1× Kinase Buffer A. […]
Kinase and assay components were adjusted to final concentrations according to the kit protocol.

human hepatocyte = assay: Human hepatocyte stability, predicted hepatic clearance (h-Hept CL predict); type: in vitro ADME; details: human hepatocytes, 0.5×10^6 cells/mL, 1 μM, values without asterisk
Procedure: The compounds disclosed herein were tested in vitro on human hepatocyte for in vitro h-Hept CL predict according to the following procedures. • 1. Compound sock solutions were prepared by dissolving test compound and positive control in dimethyl sulfoxide (DMSO) at a concentration of 10 mM. Stock solutions were then diluted to 100 μM solutions by combining 198 μL of 50% acetonitrile/50% water with 2 μL of the 10 mM stock in separate conical tubes. • 2. Cryopreserved hepatocytes were prepared as follows: Incubation medium (William's E Medium supplemented with GlutaMAX) and hepatocyte thawing medium were placed in a 37° C. water bath and allowed to warm for at least 15 minutes prior to use. Cryopreserved hepatocytes were removed from storage, ensuring that vials remained at cryogenic temperatures until thawed. Cells were thawed by placing the vials in a 37° C. water bath and gently shaking the vials for 2 minutes. After thawing was completed, vials were sprayed with 70% ethanol and transferred to a biosafety cabinet. Hepatocytes were transferred into 50 mL conical tube containing thawing medium using wide-bore pipette tips. Tubes were placed into a centrifuge and spun at 100 g for 10 minutes. Then thawing medium was aspirated and hepatocytes were resuspended in enough incubation medium to yield ˜1.5×10^6 cells/mL. Cells were counted using acridine orange and propidium iodide (AO/PI) staining, and the viable cell density was determined. Cells were diluted with incubation medium to a working cell density of 0.5×10^6 viable cells/mL. • 3. To determine hepatocyte stability, 198 μL of hepatocytes were transferred into each well of a 96-well non-coated plate. Plates were placed in an incubator to allow the hepatocytes to warm for 10 minutes. • 4. The reaction was started by transferring 2 μL of the 100 μM test compound or positive control solution into respective wells of the 96-well non-coated plates. Plates were returned to the incubator until 25 μL aliquots of well contents were sampled at time points of 0, 15, 30, 60, 90 and 120 minutes. The aliquots were then mixed with 6 volumes (150 μL) of acetonitrile containing internal standard, IS (100 nM alprazolam, 200 nM caffeine and 100 nM tolbutamide) to terminate the reaction and vortexed for 5 minutes. After centrifuging the samples for 45 minutes at 3,220 g, aliquots of 100 μL of the supernatant were taken and diluted with 100 μL of ultra-pure water. The mixture was used for LC/MS/MS analysis. All incubations were performed in duplicate.
All calculations were carried out using Microsoft Excel. Peak area ratios (PAR) were determined from extracted ion chromatograms. The in vitro half-life (t1/2) of parent compound was determined by regression analysis of the percent parent disappearance vs. time curve as follows:
Conversion of the in vitro t1/2 (in minutes) into the in vitro intrinsic clearance (in vitro CLint, in μL/min/1×10^6 cells) was done using the following equation (mean of duplicate determinations): […]
The scaled-up intrinsic clearance (CLint, mL/min/kg), predicted hepatic clearance (CLH, mL/min/kg) and hepatic extraction ratio (ER) were calculated using the following equations:
CLint=(0.693/t1/2)*(1/(hepatocyte concentration (0.5*10^6 cells/mL)))*scaling factors (Table (A) Appendix Table 1)
CLHept-predict=(QH*Scaled-up CLint*fub)/(QH+Scaled-up CLint*fub)
ER=CLH/QH • Where: • V=incubation volume (0.2 mL) • N=number of hepatocytes per well (0.1*10^6 cells) • QH=hepatic blood flow (mL/min/kg) (Table (A) Appendix Table 1) • fub=fraction of unbound drug in plasma, assumed to be 1

Row | SMILES | Caco-2 ER (Caco-2 cells) | Caco-2 A2B (10^−6 cm/s) (Caco-2 cells) | Caco-2 B2A (10^−6 cm/s) (Caco-2 cells) | IC50 [1] [nM] | hHep Cl (mL/min/kg) (human hepatocyte)
1 | CCS(=O)(=O)N1CCN(c2cc3c(cn2)NC(c2c(F)cccc2F)=Nc2c(C)n[nH]c2-3)CC1 [Example 11, 8-(2,6-difluorophenyl)-13-(4-ethylsulfonylpiperazin-1-y1)-5-methyl-3,4,7,9,12-pentazatricyclo[8.4.0.02, 6]tetradeca-1(10),2(6),4,7,11,13-hexaene] | L (L (Likely)”: ER≥2.5) | L (L (Low permeability)”: A2B (B2A)<1) | H (H (High permeability)”: A2B (B2A)>5) | < 1 | I (I (Intermediate Cl)”: 6.3≤Hep Cl (mL/min/kg)≤14.7)
2 | COC[C@H]1CN(c2cc3c(cn2)NC(c2c(F)cccc2F)=Nc2c(C)n[nH]c2-3)CCO1 [Example 15, (2R)-4-[8-(2,6-difluorophenyl)-5-methyl-3,4,7,9,12-pentazatricyclo[8.4.0.02,6]tetradeca-1(10),2(6),4,7,11,13-hexaen-13-y1]-2-(methoxymethyl)morpholine] | L (L (Likely)”: ER≥2.5) | M (M (Moderate permeability)”: 1≤A2B (B2A)≤5) | H (H (High permeability)”: A2B (B2A)>5) | 1 to 100 | L (L (Low Cl)”: Hep Cl (mL/min/kg)<6.3)
3 | COC[C@@H]1CN(c2cc3c(cn2)NC(c2c(F)cccc2F)=Nc2c(C)n[nH]c2-3)CCO1 [Example 16, (2S)-4-[8-(2,6-difluorophenyl)-5-methyl-3,4,7,9,12-pentazatricyclo[8.4.0.02,6]tetradeca-1(10),2(6),4,7,11,13-hexaen-13-y1]-2-(methoxymethyl)morpholine] | L (L (Likely)”: ER≥2.5) | M (M (Moderate permeability)”: 1≤A2B (B2A)≤5) | H (H (High permeability)”: A2B (B2A)>5) | 1 to 100 | L (L (Low Cl)”: Hep Cl (mL/min/kg)<6.3)
4 | Cc1n[nH]c2c1N=C(c1c(F)cccc1F)Nc1cnc(N3CCC[C@H](C#N)C3)cc1-2 [Example 19, (3S)-1-[8-(2,6-difluorophenyl)-5-methyl-3,4,7,9,12-pentazatricyclo [8.4.0.02,6]tetradeca-1(10),2(6),4,7,11,13-hexaen-13-yl]piperidine-3-carbonitrile] | L (L (Likely)”: ER≥2.5) | M (M (Moderate permeability)”: 1≤A2B (B2A)≤5) | H (H (High permeability)”: A2B (B2A)>5) | 1 to 100 | L (L (Low Cl)”: Hep Cl (mL/min/kg)<6.3)
5 | OCc1ccc(F)c(C2=Nc3c(Cl)n[nH]c3-c3cc(N4CCOCC4)ncc3N2)c1F [Example 21, (3-(3-chloro-9-morpholino-1,6-dihydropyrazolo[4,3-d]pyrido[4,3-f][1,3]diazepin-5-yl)-2,4-difluorophenyl)methanol] | L (L (Likely)”: ER≥2.5) | L (L (Low permeability)”: A2B (B2A)<1) | H (H (High permeability)”: A2B (B2A)>5) | < 1 | L (L (Low Cl)”: Hep Cl (mL/min/kg)<6.3)
6 | OCc1cc(F)c(C2=Nc3c(Cl)n[nH]c3-c3cc(N4CCOCC4)ncc3N2)c(F)c1 [Example 22, (4-(3-chloro-9-morpholino-1,6-dihydropyrazolo[4,3-d]pyrido[4,3-f][1,3]diazepin-5-y1)-3,5-difluorophenyl)methanol] | L (L (Likely)”: ER≥2.5) | L (L (Low permeability)”: A2B (B2A)<1) | H (H (High permeability)”: A2B (B2A)>5) | < 1 | I (I (Intermediate Cl)”: 6.3≤Hep Cl (mL/min/kg)≤14.7)
7 | Fc1cccc(Cl)c1C1=Nc2c(Cl)n[nH]c2-c2cc(N3CCOCC3)ncc2N1 [Example 24, (4-[5-chloro-8-(2-chloro-6-fluoro-phenyl)-3,4,7,9,12-pentazatricyclo[8.4.0.02,6]tetradeca-1(10),2(6),4,7,11,13-hexaen-13-yl]morpholine)] | L (L (Likely)”: ER≥2.5) | M (M (Moderate permeability)”: 1≤A2B (B2A)≤5) | H (H (High permeability)”: A2B (B2A)>5) | < 1 | I (I (Intermediate Cl)”: 6.3≤Hep Cl (mL/min/kg)≤14.7)
8 | [2H]C1([2H])OC([2H])([2H])C([2H])([2H])N(c2cc3c(cn2)NC(c2c(F)cccc2F)=Nc2c(Cl)n[nH]c2-3)C1([2H])[2H] [Example 25, 4-[5-chloro-8-(2,6-difluorophenyl)-3,4,7,9,12-pentazatricyclo[8.4.0.02,6]tetradeca-1(10),2(6),4,7,11,13-hexaen-13-yl]-2,2,3,3,5,5,6,6-octadeuterio-morpholine] | L (L (Likely)”: ER≥2.5) | M (M (Moderate permeability)”: 1≤A2B (B2A)≤5) | H (H (High permeability)”: A2B (B2A)>5) | < 1 | L (L (Low Cl)”: Hep Cl (mL/min/kg)<6.3)
